For orientation: melting point means the temperature of the solid-liquid transition. `CCc1nc2c(N)nc3c(c2n1CCCCS(=O)(=O)NC)CCCC3` [Example 39, N-Methyl 4-(4-amino-2-ethyl-6,7,8,9-tetrahydro-1H-imidazo[4,5-c]quinolin-1-yl)butane-1-sulfonamide]: the melting point lay within 166 to 170 °C.
Under `CCOCc1nc2c(N)nc3ccccc3c2n1CCCCS(=O)(=O)Nc1ccccn1` [Example 40, 4-[4-Amino-2-(ethoxymethyl)-1H-imidazo[4,5-c]quinolin-1-yl]-N-(pyridin-2-yl)butane-1-sulfonamide] stands 197 to 200 °C; under `CCOCc1nc2c(N)nc3ccccc3c2n1CC(C)(C)CS(=O)(=O)NCc1ccc(OC)cc1` [Example 41, 3-[4-Amino-2-(ethoxymethyl)-1H-imidazo[4,5-c]quinolin-1-yl]-N-(4-methoxybenzyl)-2,2-dimethylpropane-1-sulfonamide], 203 to 205 °C; under `CCOCc1nc2c(N)nc3ccccc3c2n1CC(C)(C)CS(N)(=O)=O` [Example 42, 3-[4-Amino-2-(ethoxymethyl)-1H-imidazo[4,5-c]quinolin-1-yl]-2,2-dimethylpropane-1-sulfonamide], 229 to 231 °C.
In the case of `Cc1nc2c(N)nc3c(c2n1CC(C)(C)CS(N)(=O)=O)CCCC3` [Example 43, 3-(4-Amino-2-methyl-6,7,8,9-tetrahydro-1H-imidazo[4,5-c]quinolin-1-yl)-2,2-dimethylpropane-1-sulfonamide] it was 242 to 243 °C (dec.).

The values above are taken from patent US8735421B2, “Imidazoquinolinyl sulfonamides” (3M Innovative Properties Company, priority 2003, dated 2014).
